Source: ChEMBL document CHEMBL1125302, “Prodrugs of nitroxyl as inhibitors of aldehyde dehydrogenase” (J Med Chem, 1992)
Active and inactive are the calls of the source. The calls are words filed in the database; no cut-off is given here.

What was measured:
[1] = In vitro inhibitory activity against yeast […] dehydrogenase; Active; details: Saccharomyces cerevisiae
[2] = Inhibitory activity against porcine […] dehydrogenase; Active; details: Sus scrofa

Activity [1] | Activity [2] | SMILES
Active | Active | CC(C)(C)OC(=O)N(OC(=O)c1ccccc1)S(=O)(=O)c1ccccc1
Active | Active | CC(=O)ON(C(=O)OC(C)(C)C)S(=O)(=O)c1ccccc1
 | Active | N#CN(OC(=O)c1ccccc1)C(=O)c1ccccc1
